This is an account of results in PMC7419507, “In vitro Cas9-assisted editing of modular polyketide synthase genes to produce desired natural product derivatives” (Nature Communications, 2020).

This series in a line: Stability of the compound during isolation. In kind it is physicochemical. The following applies: isolation from culture. The text has this:
Authors' possible answers (A) to the comments (C) raised by Reviewer #2.
This manuscript by Kudo et al. describes the combined application of in vitro CRIPS-Cas9 and Gibson assembly technology to edit type 1 modular PKSs. Authors […]
module deletion/insertion, reductive domains, stereochemistry of beta-hydroxyl group, and double modification (ER and KR) using rapamycin PKS as a model system. Although in vitro CIRPR/Cas9 system for refactoring of biosynthetic gene clusters in Streptomyces has been reported previously (mBio 6(6):e01714-15), this manuscript may be the first report to use CIRPR/Cas9 technology to edit the large modular PKSs.
We thank Reviewer #2 for the positive evaluation of our technology. Since the engineering […]
(C-1) Although the method used in this study seems promising to edit PKS efficiently, authors should present the complete structural data (e.g. 1D and 2D NMR) of all […]
(A-1) We have added NMR data for compounds 10, 11 , 12, 13, 15 and 16, whose yields were high enough allow their analysis by NMR. In addition, we confirmed the quantitative analysis of all compounds (Supplementary Table 3). […]
smaller m/z than that of 5 (Figs. A(d) and (e)). Multiple degradation products were detected (Fig. B) and those peaks were not detectable from crude extract before isolation.
We measured a NMR spectrum of the collected sample (ca 0.8 mg), however, the sample […]

With `CO[C@H]1C[C@@H]2CC[C@@H](C)[C@@](O)(O2)C(=O)C(=O)N2CCCC[C@H]2C(=O)O[C@H]([C@H](C)C[C@@H]2CC[C@@H](O)[C@H](OC)C2)CC(=O)[C@H](C)/C=C(\C)[C@@H](O)[C@@H](OC)C(=O)[C@H](C)CC/C=C/C=C/C=C/1C` [Compound 5, 23-demethyl rapamycin], the “Stability during isolation, in words” value was “instability”.

As to `CO[C@@H]1C[C@H](C[C@@H](C)[C@@H]2CC(=O)[C@H](C)/C=C(\C)[C@@H](O)CC(=O)[C@H](C)/C=C(C)/C=C/C=C/C=C(\C)[C@H](O)C[C@@H]3CC[C@@H](C)[C@@](O)(O3)C(=O)C(=O)N3CCCC[C@H]3C(=O)O2)CC[C@H]1O` [Compound 19, 27-demethoxy-16-O-demethyl-23,24-didehydro-rapamycin], the “Stability during isolation, in words” value is “so unstable that we could not isolate it”.
